According to patent US10344017B2, “Pyrrolcarboxamide derivatives for the inhibition of ERK5” (CANCER RESEARCH TECHNOLOGY LIMITED, priority 2014, dated 2019):
Where two headings read alike, the source gives them in different places.

Assays:
[1] = target: T1, ERK5 (Homo sapiens, UniProt Q13164); experiment: ERK5 IMAP assay (fluorescence polarisation); assay type: biochemical
T1 construct: made in house

[2] = system: ERK5 autophosphorylation in HeLa cells; experiment: EGF-stimulated HeLa cell assay (ERK5 autophosphorylation, Western blot); assay type: cell-based; conditions: Homo sapiens, average where more than one data point
Method: EGF-Stimulated HeLa Cell Assay
HeLa cells were serum starved overnight followed by treatment with ERK5 inhibitors for 1 hr. Cells were then stimulated with 100 ng/ml EGF for 10 or 15 min. The cells were harvested and lysed at 4° C. for 5-10 min in Laemmli buffer containing Halt protease and […] (Pierce). The lysates were boiled for 10 min at 100° C. Twenty microliters sample was run on 6% or 7.5% Tris-glycine gels and transferred to nitrocellulose. […] The IC50 was calculated from densitometry of top bands.

[3] = system: ERK5 (HA-ERK5 wt activated by EGFP-MEK5D, MEF2D-Gal4/Gal4-Luc reporter) in HEK293 cells; experiment: Dual-luciferase reporter assay (ERK5 reporter), reverse-transfected HEK293 cells; conditions: Homo sapiens, HEK293, read-out: ERK 5 Reporter Assay
Method: Trypsinizing of Adherent Cell Colonies
Cells were regularly passaged in order to maintain optimum colony sizes on plates. In order to do this, and to harvest cells for use in the dual-luciferase reporter assay, adherent cells were lifted from tissue culture dishes. Cell media was removed via aspiration, and the cell monolayer was washed with phosphate buffered saline (PBS) solution (10 mL), which was then aspirated.
Reverse Transfection of HEK293 Cells
Preparation of EGFP Control (C3) Working Solution (for 1×96 Well Plate)
Preparation of HEK293 Cells for Reverse Transfection
Trypsinized HEK293 cells were re-suspended in 19 mL of fresh cell media and counted using haemocytometry. Cells were then diluted with fresh cell media to achieve a final cell concentration of 2×10^5 cells/mL. 1237.5 μL and 7425 μL of this cell media was added to the C3 and 5D working solutions respectively. 100 μL of the transfected cells were then aliquoted into the appropriate wells in a 96-well opaque sided tissue culture plate, and incubated at 37° C. for 6 h.
Addition of Compounds to HEK293 Cells
4 compounds was assayed per 96-well plate. For each compound, 1 mL of growth media was added to eight 1.5 mL Eppendorf® tubes. 6 μL of DMSO was added to two tubes for C3 and blank 5D wells, and 6 μL of the relevant compound stock solution was added to the 6 remaining tubes. […] Solutions of drug in media were thoroughly mixed, and 100 μL of the relevant compound was transferred (in triplicate) to the 96-well plate containing transfected HEK293 cells using an electronic multichannel pipette with variable tip spacing. Sealed plates were incubated at 37° C. for 24 h. Final compound concentrations were as follows; 30 μM, 10 μM, 3 μM, 1 μM and 0.3 μM.
15 mL of 1× passive lysis buffer (PLB) was prepared using 5×PLB (Dual-Luciferase Reporter Assay System, Promega® E1960), diluting with H2O. Assay plates prepared were removed from the incubator and the growth media removed by aspiration.

[4] = system: HA-ERK5-ΔP493 (MEK5D-activated, MEF2D-Gal4/Gal4-Luc reporter) in HEK293T cells; experiment: Truncated dual-luciferase reporter assay, HEK293T forward transfection; assay type: cell-based; conditions: Homo sapiens, HEK-293T, average where more than one data point, read-out: Truncated ERK 5 Reporter Assay
Method: (§1) Truncated Dual-Luciferase Reporter Assay
(§2) HEK293T and HeLa Forward Transfection
Constitutively-active, EGFP-tagged MEK5 (EGFP-MEK5D; 0.5 μg/μl), an EGFP-tagged construct containing no MEK5D (EGFP-C3; 0.5 μg/μl), and HA-tagged ERK5 with C-terminal truncation (HA-ERK5-ΔP493; 0.51 μg/μl) were diluted separately in sterile distilled water. Plasmid DNA and Lipofectamine 2000 (Invitrogen) were separately diluted in Opti-MEM growth media (reduced serum medium, Invitrogen), and incubated at room temperature for 5 min. Plasmid DNA (Tube A) and Lipofectamine 2000 (Tube B) were then combined and incubated for 20 min at room temperature to complex. Cells were then transfected by addition of 16 μl of the respective transfection mixture: 3 wells with EGFP-C3-containing (control) and 21 wells with MEK5D-containing transfection mixture (final volume, 100 μl). Cells were subsequently incubated for 4 h at 37° prior to addition of potential ERK5-inhibitory compounds.
Addition of Compounds to ERK5-Transfected HEK293T or HeLa Cells
Potential ERK5-inhibitory compounds were prepared as a 2× solution by addition of 2 μl compound (or DMSO as control) to 1 ml standard culture medium. Compounds were tested in triplicate at a concentration range of 0.003 μM, 0.01 μM, 0.03 μM, 0.1 μM, 0.3 μM and 1 μM (or 0.03 μM, 0.1 μM, 0.3 μM, 1 μM, 3 μM and 10 μM for BIX02189) by addition of 100 μl 2× solution to 100 μl transfected cells (final DMSO, 0.1% v/v). Cells were incubated for 24 h at 37° C.
(§3) Cell Lysis and Luciferase Quantification
(§4) After 24 h incubation in the absence (control) or presence of potential inhibitor, the culture medium was aspirated and cells lysed in 20 μl 1× passive lysis buffer (Dual-Luciferase Reporter Assay System, Promega) for a minimum of 15 min with agitation. Lysates were further processed immediately or stored at −80° C. Cellular inhibition of ERK5 was quantified using the Dual-Luciferase Reporter Assay System (Promega). Luciferase assay buffer/Luciferase assay substrate and Stop and Glo assay buffer/Stop and Glo substrate were prepared according to the manufacturer's instructions. Luciferase reagent (50 μl/well) was added immediately before luminescence detection using a FLUOstar Omega plate reader (BMG Labtech). Stop and Glo reagent (50 μl/well) was subsequently added, and the Renilla luciferase signal (transfection efficiency control) quantified.
The ERK5-specific signalling activity was calculated by subtraction of the EGFP-C3 luciferase signal from the EGFP-MEK5D-induced luminescence. Luminescence in the absence of potential ERK5 inhibitor (DMSO control) was taken as 100% ERK5 activity. […] Unless stated otherwise, data are mean±standard deviation of three independent experiments.

[5] = system: HA-ERK5-ΔP493 (MEK5D-activated, MEF2D-Gal4/Gal4-Luc reporter) in HeLa cells; experiment: Truncated dual-luciferase reporter assay, HeLa forward transfection; assay type: cell-based; conditions: Homo sapiens, value with spread
Method: as §1, §2
HEK293T or HeLa cells were seeded in 96-well luminescence (white) plates (1.68×10^4/well in 84 μl standard culture medium) and incubated overnight at 37° C. in a humidified atmosphere of 5% CO2 in air. Plasmid DNA mastermix containing MEF2D-Gal4 (0.25 μg/μl), Gal4-Luc (1.25 μg/μl) and Renilla luciferase (0.1 μg/μl) was prepared in sterile distilled water. Constitutively-active, EGFP-tagged MEK5 (EGFP-MEK5D; 0.5 μg/μl), an EGFP-tagged construct containing no MEK5D (EGFP-C3; 0.5 μg/μl), and HA-tagged ERK5 with C-terminal truncation (HA-ERK5-ΔP493; 0.51 μg/μl) were diluted separately in sterile distilled water. Plasmid DNA and Lipofectamine 2000 (Invitrogen) were separately diluted in Opti-MEM growth media (reduced serum medium, Invitrogen), and incubated at room temperature for 5 min. Plasmid DNA (Tube A) and Lipofectamine 2000 (Tube B) were then combined and incubated for 20 min at room temperature to complex. […]
as §3
as §4, with “Lysates were further processed immediately or stored at −80° C.” left out, “Luciferase assay buffer/Luciferase assay substrate and Stop and Glo assay buffer/Stop and Glo substrate were prepared according to the manufacturer's instructions.” left out
The ERK5-specific signalling activity was calculated by subtraction of the EGFP-C3 luciferase signal from the EGFP-MEK5D-induced luminescence. Luminescence in the absence of potential ERK5 inhibitor (DMSO control) was taken as 100% ERK5 activity. […]

[6] = system: tumour cell lines and endothelial cells; conditions: cited from earlier work
[7] = cited from earlier work
[8] = system: human and murine tumour; conditions: cited from earlier work
[9] = system: bFGF-induced angiogenesis; conditions: matrigel plug; cited from earlier work
[10] = average (e.g. geometric mean) where more than one data point, read-out: ERK5 IC50
[11] = value ± spread, second part of table, read-out: ERK5 IMAP IC50

T1 sequence (Q13164 whole entry): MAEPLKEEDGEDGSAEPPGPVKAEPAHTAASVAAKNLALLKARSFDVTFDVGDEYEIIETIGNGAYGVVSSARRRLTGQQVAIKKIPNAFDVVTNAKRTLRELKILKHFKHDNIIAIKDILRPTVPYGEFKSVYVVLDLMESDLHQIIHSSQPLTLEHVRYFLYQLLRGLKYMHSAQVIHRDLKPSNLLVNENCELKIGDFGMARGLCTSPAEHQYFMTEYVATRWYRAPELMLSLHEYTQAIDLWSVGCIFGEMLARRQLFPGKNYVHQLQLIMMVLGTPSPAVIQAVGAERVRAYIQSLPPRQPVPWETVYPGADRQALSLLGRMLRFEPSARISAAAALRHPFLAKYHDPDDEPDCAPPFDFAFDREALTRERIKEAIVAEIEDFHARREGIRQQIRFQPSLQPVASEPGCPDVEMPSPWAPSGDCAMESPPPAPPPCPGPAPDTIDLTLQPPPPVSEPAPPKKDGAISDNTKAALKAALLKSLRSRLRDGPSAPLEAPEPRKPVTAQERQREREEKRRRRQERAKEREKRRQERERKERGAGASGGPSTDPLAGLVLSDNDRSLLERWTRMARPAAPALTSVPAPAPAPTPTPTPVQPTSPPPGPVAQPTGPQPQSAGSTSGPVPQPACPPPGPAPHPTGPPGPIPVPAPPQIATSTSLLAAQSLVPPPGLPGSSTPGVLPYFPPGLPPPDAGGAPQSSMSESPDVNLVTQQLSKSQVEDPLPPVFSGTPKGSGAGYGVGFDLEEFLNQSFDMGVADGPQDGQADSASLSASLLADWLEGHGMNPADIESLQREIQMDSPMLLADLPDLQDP

Structure (SMILES)	IC50 [1, 10]	IC50 [2]	other results
O=C(Nc1cnn(C2CNC2)c1)c1cc(C(=O)c2c(Cl)ccc(Cl)c2F)c[nH]1 [Example 54, N-(1-(Azetidin-3-yl)-1H-pyrazol-4-yl)-4-(3,6-dichloro-2-fluorobenzoyl)-1H-pyrrole-2-carboxamide]	31.7 nM	140 nM	–
COc1ccc(Cl)c(C(=O)c2c[nH]c(C(=O)Nc3ccc(N4CCNCC4)nc3)c2)c1F [Example 69, 4-(6-Chloro-2-fluoro-3-methoxybenzoyl)-N-(6-(piperazin-1-yl)pyridin-3-yl)-1H-pyrrole-2-carboxamide]	15.7 nM	700 nM	–
COc1ccc(Cl)c(C(=O)c2c[nH]c(C(=O)NC3CCN(C)CC3)c2)c1F [Example 70, 4-(6-chloro-2-fluoro-3-methoxybenzoyl)-N-(1-methylpiperidin-4-yl)-1H-pyrrole-2-carboxamide]	57.9 nM	1700 nM	IC50 [3]: 477 nM
COc1ccc(Cl)c(C(=O)c2c[nH]c(C(=O)Nc3cccnc3)c2)c1F [Example 72, 4-(6-chloro-2-fluoro-3-methoxybenzoyl)-N-(pyridin-3-yl)-1H-pyrrole-2-carboxamide]	90.8 nM	1900 nM	IC50 [3]: 2980 nM
CCN(CC)CCNc1ncc(NC(=O)c2cc(C(=O)c3c(Cl)ccc(Cl)c3F)c[nH]2)cn1 [Example 100, 4-(3,6-Dichloro-2-fluorobenzoyl)-N-(2-((2-(diethylamino)ethyl)amino)pyrimidin-5-yl)-1H-pyrrole-2-carboxamide]	19.3 nM	490 nM	IC50 [4]: 151 nM
CN(c1ccc(NC(=O)c2cc(C(=O)c3c(Cl)ccc(Cl)c3F)c[nH]2)cn1)C1CCNCC1 [Example 107, 4-(3,6-Dichloro-2-fluorobenzoyl)-N-(6-(methyl(piperidin-4-yl)amino)pyridin-3-yl)-1H-pyrrole-2-carboxamide]	24.6 nM	450 nM	–
O=C(Nc1ccc(OC2CCNCC2)nc1)c1cc(C(=O)c2c(Cl)ccc(Cl)c2F)c[nH]1 [Example 109, 4-(3,6-Dichloro-2-fluorobenzoyl)-N-(6-(piperidin-4-yloxy)pyridin-3-yl)-1H-pyrrole-2-carboxamide]	10.8 nM	50 nM	IC50 [4]: 92 nM
O=C(Nc1ccc(CC2CCNCC2)nc1)c1cc(C(=O)c2c(Cl)ccc(Cl)c2F)c[nH]1 [Example 111, 4-(3,6-Dichloro-2-fluorobenzoyl)-N-(6-(piperidin-4-ylmethyl)pyridin-3-yl)-1H-pyrrole-2-carboxamide]	5.1 nM	290 nM	–
O=C(Nc1cccnc1)c1cc(C(=O)c2c(Cl)ccc(Cl)c2F)c[nH]1 [Example 172, 4-(3,6-Dichloro-2-fluorobenzoyl)-N-(pyridin-3-yl)-1H-pyrrole-2-carboxamide]	65.6 nM	190 nM	IC50 [3]: 598 nM
Cn1cc(NC(=O)c2cc(C(=O)c3c(F)cccc3F)c[nH]2)cn1 [Example 285, 4-(2,6-Difluorobenzoyl)-N-(1-methyl-1H-pyrazol-4-yl)-1H-pyrrole-2-carboxamide]	–	–	IC50 [1, 11]: 1560 ± 50 nM; IC50 [5]: 671 nM
Cc1cccc(F)c1C(=O)c1c[nH]c(C(=O)Nc2cnn(C)c2)c1 [Example 286, 4-(2-Fluoro-6-methylbenzoyl)-N-(1-methyl-1H-pyrazol-4-yl)-1H-pyrrole-2-carboxamide]	–	–	IC50 [1, 11]: 7070 ± 20 nM; IC50 [5]: 2480 nM
Cn1cc(NC(=O)c2cc(C(=O)c3ccccc3F)c[nH]2)cn1 [Example 287, 4-(2-Fluorobenzoyl)-N-(1-methyl-1H-pyrazol-4-yl)-1H-pyrrole-2-carboxamide]	–	–	IC50 [1, 11]: 7550 ± 300 nM; IC50 [5]: 3200 nM
CCOc1cc(N2CCC(O)CC2)ccc1Nc1ncc2c(n1)N(C)c1ccccc1C(=O)N2C [XMD8-92]	–	–	anti-proliferative activity [6]: modest anti-proliferative activity; tolerability in mice [7]: well tolerated; tumour growth ([8]; human and murine tumours in mice): pronounced retardation of both human and murine tumour growth; inhibition of tumour ERK5 ([8]; mice): inhibited tumour ERK5; blood vessel formation [9]: completely abrogated blood vessel formation
